Read-outs that look alike come from different tables or passages of the source.
Tested on: A549
Assay: A549 assay: screening of cancer cell growth inhibiting compound
Format: cell-based
Details: Homo sapiens
Description: Screening of Cancer Cell Growth Inhibiting Compound
A cell suspension solution (RERF-LC-AI, A549: 1×10^4/ml, MRC5: 3×10^4/ml and 1×10^5/ml) adjusted to an appropriate concentration with D-MEM (hereinafter, referred to as a culture solution and manufactured by Nacalai Tesque Inc.) supplemented with 10% FBS (HyClone) was added to the wells of a 96-well plate (hereinafter, well plate) at a rate of 100 μL/well and incubated in a CO2 incubator at 37° C. for a day. […] Next, cells were added to each well of the well plate prepared and the above compound dilution solution was added at a rate of 100 μL/well to obtain 200 μL/well. Thereafter, the cells were incubated in the CO2 incubator at 37° C. for further three days. To each well of the well plate, 10 μL of a WST-8 kit (Kishida Chemical Co., Ltd.) solution for counting the number of cells was added and a color reaction was performed in the CO2 incubator for 1 to 4 hours. After the absorbance at 450 nm (reference wavelength: 620 nm) was measured by a microplate reader, suppressing action of the test substance was calculated based on the absorbance value in the absence of a test substance.

[1] = A549, 72 h, read-out: A549 IC50 (μM)
[2] = 72 h, A549 cells, three days, WST-8, read-out: A549 IC50

Row | SMILES | IC50 [2] | IC50 [1]
1 | O=C(NC1CC1)c1ccc(-c2cnc3c(NCC4CCOCC4)nccn23)cc1 [Example 1-1, N-cyclopropyl-4-(8-((tetrahydro-2H-pyran-4-yl)methylamino)imidazo[1,2-a]pyrazin-3-yl)benzamide] | – | 1 to 10 µM
2 | O=C(NC1CC1)c1ccc(-c2cnc3c(NCC4CC4)nccn23)cc1 [Example 1-36] | – | 1 to 10 µM
3 | CCCNc1nccn2c(-c3ccc(C(=O)NC4CC4)cc3)cnc12 [Example 1-37] | – | 1 to 10 µM
4 | CC(C)CCNc1nccn2c(-c3ccc(C(=O)NC4CC4)cc3)cnc12 [Example 1-43] | – | 1 to 10 µM
5 | CC(C)CNc1nc(-c2ccccc2)cn2c(-c3ccc(C(=O)NC4CC4)cc3)cnc12 [Example 1-101] | – | 0.5 to 1 µM
6 | CC(C)CNc1nc(-c2ccsc2)cn2c(-c3ccc(C(=O)NC4CC4)cc3)cnc12 [Example 1-103] | 0.5 to 1 µM | –
7 | CC(C)CNc1nc(-c2cccc(C#N)c2)cn2c(-c3ccc(C(=O)NC4CC4)cc3)cnc12 [Example 1-106] | 0.5 to 1 µM | –
8 | CC(C)CNc1nc(-c2cccnc2)cn2c(-c3ccc(C(=O)NC4CC4)cc3)cnc12 [Example 1-107] | 0.5 to 1 µM | –
9 | CC(C)CNc1nc(C2=CCCC2)cn2c(-c3ccc(C(=O)NC4CC4)cc3)cnc12 [Example 1-108] | 1 to 10 µM | –
10 | CC(C)CNc1nc(-c2ccc3occc(=O)c3c2)cn2c(-c3ccc(C(=O)NC4CC4)cc3)cnc12 [Example 1-110] | 0.5 to 1 µM | –
11 | CC(C)CNc1nc(-c2ccncc2)cn2c(-c3ccc(C(=O)NC4CC4)cc3)cnc12 [Example 1-111] | 0.05 to 0.5 µM | –
12 | CC(C)CNc1nc(-c2ccc(N)cc2)cn2c(-c3ccc(C(=O)NC4CC4)cc3)cnc12 [Example 1-114] | 0.05 to 0.5 µM | –
13 | CC(C)CNc1nc(-c2ccc(S(=O)(=O)N3CCCC3)cc2)cn2c(-c3ccc(C(=O)NC4CC4)cc3)cnc12 [Example 1-115] | 1 to 10 µM | –
14 | CC(C)CNc1nc(-c2ccc(S(=O)(=O)C(C)C)cc2)cn2c(-c3ccc(C(=O)NC4CC4)cc3)cnc12 [Example 1-116] | 0.5 to 1 µM | –
15 | CC(C)CNc1nc(-c2ccc(OCCN3CCOCC3)cc2)cn2c(-c3ccc(C(=O)NC4CC4)cc3)cnc12 [Example 1-117] | 1 to 10 µM | –
16 | CC(C)CNc1nc(-c2ccc(NC(=O)NCc3ccco3)cc2)cn2c(-c3ccc(C(=O)NC4CC4)cc3)cnc12 [Example 1-118] | 0.5 to 1 µM | –
17 | CC(C)CNc1nc(-c2ccc(CNS(C)(=O)=O)cc2)cn2c(-c3ccc(C(=O)NC4CC4)cc3)cnc12 [Example 1-119] | 0.5 to 1 µM | –
18 | CC(C)CNc1nc(-c2ccc(O)c(Cl)c2)cn2c(-c3ccc(C(=O)NC4CC4)cc3)cnc12 [Example 1-120] | 1 to 10 µM | –
19 | CC(C)CNc1nc(-c2ccc(NC(=O)N3CCCC3)cc2)cn2c(-c3ccc(C(=O)NC4CC4)cc3)cnc12 [Example 1-121] | 0.5 to 1 µM | –
20 | CC(C)CNc1nc(-c2cccc(C(=O)NCCCN(C)C)c2)cn2c(-c3ccc(C(=O)NC4CC4)cc3)cnc12 [Example 1-122] | 1 to 10 µM | –

Row | SMILES | IC50 [2] | IC50 [1]
21 | CC(C)CNc1nc(-c2ccccc2N)cn2c(-c3ccc(C(=O)NC4CC4)cc3)cnc12 [Example 1-123] | 0.05 to 0.5 µM | –
22 | CC(C)CNc1nc(-c2cccc(N)c2)cn2c(-c3ccc(C(=O)NC4CC4)cc3)cnc12 [Example 1-124] | 0.5 to 1 µM | –
23 | CC(C)CNc1nc(-c2ccc(C(=O)c3ccccc3)cc2)cn2c(-c3ccc(C(=O)NC4CC4)cc3)cnc12 [Example 1-125] | 1 to 10 µM | –
24 | CC(C)CNc1nc(-c2cccc(CN3CCOCC3)c2)cn2c(-c3ccc(C(=O)NC4CC4)cc3)cnc12 [Example 1-127] | 1 to 10 µM | –
25 | CC(C)CNc1nc(-c2cccc(C(=O)NCCCN3CCN(C)CC3)c2)cn2c(-c3ccc(C(=O)NC4CC4)cc3)cnc12 [Example 1-138] | 1 to 10 µM | –
26 | CC(C)CNc1nc(-c2cccc(C(=O)NCCN3CCOCC3)c2)cn2c(-c3ccc(C(=O)NC4CC4)cc3)cnc12 [Example 1-139] | 0.5 to 1 µM | –
27 | COCCNC(=O)c1cccc(-c2cn3c(-c4ccc(C(=O)NC5CC5)cc4)cnc3c(NCC(C)C)n2)c1 [Example 1-140] | 0.05 to 0.5 µM | –
28 | CC(C)CNc1nc(-c2cccc(C(=O)NCCS(C)(=O)=O)c2)cn2c(-c3ccc(C(=O)NC4CC4)cc3)cnc12 [Example 1-141] | 1 to 10 µM | –
29 | CC(C)CNc1nc(-c2cccc(C(N)=O)c2)cn2c(-c3ccc(C(=O)NC4CC4)cc3)cnc12 [Example 1-143] | 0.5 to 1 µM | –
30 | CC(C)CNc1nc(-c2cccc(C(=O)N3CCN(C)CC3)c2)cn2c(-c3ccc(C(=O)NC4CC4)cc3)cnc12 [Example 1-144] | 1 to 10 µM | –
31 | CC(C)CNc1nc(-c2ccc(C(=O)NCCN3CCOCC3)cc2)cn2c(-c3ccc(C(=O)NC4CC4)cc3)cnc12 [Example 1-147] | 1 to 10 µM | –
32 | COCCNC(=O)c1ccc(-c2cn3c(-c4ccc(C(=O)NC5CC5)cc4)cnc3c(NCC(C)C)n2)cc1 [Example 1-148] | 0.5 to 1 µM | –
33 | CC(C)CNc1nc(-c2ccc(C(=O)NCCS(C)(=O)=O)cc2)cn2c(-c3ccc(C(=O)NC4CC4)cc3)cnc12 [Example 1-149] | 1 to 10 µM | –
34 | CC(C)CNc1nc(-c2ccc(C(N)=O)cc2)cn2c(-c3ccc(C(=O)NC4CC4)cc3)cnc12 [Example 1-151] | 0.05 to 0.5 µM | –
35 | CC(C)CNc1nc(-c2ccc(C(=O)N3CCOCC3)cc2)cn2c(-c3ccc(C(=O)NC4CC4)cc3)cnc12 [Example 1-153] | 1 to 10 µM | –
36 | CC(C)CNc1nc(-c2cccc(NC(=O)N3CCN(C)CC3)c2)cn2c(-c3ccc(C(=O)NC4CC4)cc3)cnc12 [Example 1-154] | 1 to 10 µM | –
37 | CC(C)CNc1nc(-c2cccc(NC(=O)N3CCOCC3)c2)cn2c(-c3ccc(C(=O)NC4CC4)cc3)cnc12 [Example 1-155] | 1 to 10 µM | –
38 | COCC(=O)Nc1cccc(-c2cn3c(-c4ccc(C(=O)NC5CC5)cc4)cnc3c(NCC(C)C)n2)c1 [Example 1-156] | 0.5 to 1 µM | –
39 | CC(=O)Nc1cccc(-c2cn3c(-c4ccc(C(=O)NC5CC5)cc4)cnc3c(NCC(C)C)n2)c1 [Example 1-157] | 0.5 to 1 µM | –
40 | CC(C)CNc1cc(-c2ccccc2)nn2c(-c3ccc(C(=O)NC4CC4)cc3)cnc12 [Example 2-7] | – | 0.5 to 1 µM

More lines, main results first:

Row | IC50 [2] | SMILES | IC50 [1]
41 | 0.5 to 1 µM | CC(C)CNc1nc(-c2cccc(NC(=O)CCCN3CCOCC3)c2)cn2c(-c3ccc(C(=O)NC4CC4)cc3)cnc12 [Example 1-158] | –
42 | 1 to 10 µM | CC(C)CNc1nc(-c2cccc(NC(=O)[C@@H](N)CO)c2)cn2c(-c3ccc(C(=O)NC4CC4)cc3)cnc12 [Example 1-159] | –
43 | 1 to 10 µM | CC(C)CNc1nc(-c2ccc(NC(=O)N3CCN(C)CC3)cc2)cn2c(-c3ccc(C(=O)NC4CC4)cc3)cnc12 [Example 1-160] | –
44 | 1 to 10 µM | CC(C)CNc1nc(-c2ccc(NC(=O)N3CCOCC3)cc2)cn2c(-c3ccc(C(=O)NC4CC4)cc3)cnc12 [Example 1-161] | –
45 | 1 to 10 µM | COCC(=O)Nc1ccc(-c2cn3c(-c4ccc(C(=O)NC5CC5)cc4)cnc3c(NCC(C)C)n2)cc1 [Example 1-162] | –
46 | 0.5 to 1 µM | CC(=O)Nc1ccc(-c2cn3c(-c4ccc(C(=O)NC5CC5)cc4)cnc3c(NCC(C)C)n2)cc1 [Example 1-163] | –
47 | 1 to 10 µM | CC(C)CNc1nc(-c2cccc(NCCCN)c2)cn2c(-c3ccc(C(=O)NC4CC4)cc3)cnc12 [Example 1-166] | –
48 | 0.5 to 1 µM | CC(C)CNc1nc(-c2cccc(NC3CCOCC3)c2)cn2c(-c3ccc(C(=O)NC4CC4)cc3)cnc12 [Example 1-167] | –
49 | 0.5 to 1 µM | CC(C)CNc1nc(-c2cccc(NCC3CCN(C)CC3)c2)cn2c(-c3ccc(C(=O)NC4CC4)cc3)cnc12 [Example 1-168] | –
50 | 1 to 10 µM | CC(C)CNc1nc(-c2ccc(NCCCN)cc2)cn2c(-c3ccc(C(=O)NC4CC4)cc3)cnc12 [Example 1-169] | –
51 | 1 to 10 µM | CC(C)CNc1nc(-c2ccc(NC3CCOCC3)cc2)cn2c(-c3ccc(C(=O)NC4CC4)cc3)cnc12 [Example 1-170] | –
52 | 0.05 to 0.5 µM | CC(C)CNc1nc(CCc2ccc(C(=O)O)cc2)cn2c(-c3ccc(C(=O)NC4CC4)cc3)cnc12 [Example 1-175] | –
53 | 0.05 to 0.5 µM | O=C(NC1CC1)c1ccc(-c2cnc3c(NCC4CCOCC4)nc(-c4ccsc4)cn23)cc1 [Example 1-177] | –
54 | 0.05 to 0.5 µM | O=C(NC1CC1)c1ccc(-c2cnc3c(NCC4CCOCC4)nc(-c4ccncc4)cn23)cc1 [Example 1-179] | –
55 | 0.5 to 1 µM | C/C=C/c1cn2c(-c3ccc(C(=O)NC4CC4)cc3)cnc2c(NCC2CCOCC2)n1 [Example 1-243] | –
56 | 0.05 to 0.5 µM | N#Cc1ccc(-c2cn3c(-c4ccc(C(=O)NC5CC5)cc4)cnc3c(NCC3CCOCC3)n2)cn1 [Example 1-244] | –
57 | 0.05 to 0.5 µM | N#Cc1ccc(-c2cn3c(-c4ccc(C(=O)NC5CC5)cc4)cnc3c(NCC3CCOCC3)n2)c(N)c1 [Example 1-245] | –
58 | 0.05 to 0.5 µM | N#Cc1ccc(-c2cn3c(-c4ccc(C(=O)NC5CC5)cc4)cnc3c(NCC3CCOCC3)n2)cc1F [Example 1-246] | –
59 | 1 to 10 µM | O=C(NC1CC1)c1ccc(-c2cnc3c(NCC4CCOCC4)nc(C4=CCNCC4)cn23)cc1 [Example 1-247] | –
60 | 1 to 10 µM | O=C(NC1CC1)c1ccc(-c2cnc3c(NCC4CCOCC4)nc(C=C4CCCCC4)cn23)cc1 [Example 1-248] | –
61 | 0.5 to 1 µM | CC(=O)N1CC=C(c2cn3c(-c4ccc(C(=O)NC5CC5)cc4)cnc3c(NCC3CCOCC3)n2)CC1 [Example 1-249] | –
62 | 1 to 10 µM | O=C(NC1CC1)c1ccc(-c2cnc3c(NCC4CCOCC4)nc(CC4CCCCC4)cn23)cc1 [Example 1-250] | –
63 | 0.5 to 1 µM | Cc1nc(C)c(-c2cc(NCC(C)C)c3ncc(-c4ccc(C(=O)NC5CC5)cc4)n3n2)s1 [Example 2-8] | –

From patent US20120059162A1, “FUSED IMIDAZOLE DERIVATIVE HAVING TTK INHIBITORY ACTION” (Oncotherapy Science, Inc., priority 2009, published 2012)
